Source: patent US20220142941A1, “COMBINATION THERAPEUTIC REGIMENS WITH 1,6-DIBROMO-1,6-DIDEOXY-DULCITOL” (Eleison Pharmaceuticals LLC, priority 2019, published 2022)

What was measured:
Assay in all cases: DBD combination treatment, viability enhancement factor
Format in all cases: cell-based, human
[1] = test system: GS186coreNS; conditions: GS186coreNS (p18), labelled therapy combined with crystalline DBD polymorph
Procedure: (§1) Crystalline DBD polymorph treatment was combined with chemotherapy, radiotherapy and targeted inhibitors to determine whether the crystalline DBD polymorph form could: enhance efficacy of the conventional therapies; enhance efficacy when combined with newer ‘targeted’ therapies; or would make (a subset of) cultures more sensitive to this treatment.
(§2) Therefore, cultures were treated with: • a.

[2] = test system: GS249NS; conditions: GS249NS (p17), labelled therapy combined with crystalline DBD polymorph
Procedure: as §1, §2

[3] = test system: GS186periNS; conditions: GS186periNS (p15), labelled therapy combined with crystalline DBD polymorph
Procedure: as §1, §2

[4] = test system: GS261NS; conditions: GS261NS (p13), labelled therapy combined with crystalline DBD polymorph
Procedure: as §1, §2

[5] = test system: GS184NS; conditions: GS184NS (p18 + p19), labelled therapy combined with crystalline DBD polymorph;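 also: DBD at its own IC50 and half IC50 determined at Day 5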
Procedure: as §1, §2

[6] = test system: GS245NS; conditions: GS245NS (p16 + p15), labelled therapy combined with crystalline DBD polymorph
Procedure: as §1, §2

[7] = test system: GS281NS; conditions: GS281NS (p15), labelled therapy combined with crystalline DBD polymorph
Procedure: as §1, §2

[8] = test system: GS324coreNS; conditions: GS324coreNS (p19), labelled therapy combined with crystalline DBD polymorph
Procedure: as §1, §2

[9] = test system: GS359NS; conditions: GS359NS (p15 + p14), labelled therapy combined with crystalline DBD polymorph
Procedure: as §1, §2

[10] = test system: GS323periNS; conditions: Day 5; GS323periNS (p20 + p19); labelled therapy combined with crystalline DBD polymorph
Procedure: as §1, §2

[11] = test system: GS224NS; conditions: GS224NS (p17), labelled therapy combined with crystalline DBD polymorph
Procedure: as §1, §2

[12] = test system: GS279periNS; conditions: GS279periNS (p16 + p15), labelled therapy combined with crystalline DBD polymorph;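 also: DBD at its own IC50 and half IC50 determined at Day 5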
Procedure: as §1, §2

[13] = test system: GS289NS; conditions: GS289NS (p15 + p16), labelled therapy combined with crystalline DBD polymorph;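 also: DBD at its own IC50 and half IC50 determined at Day 5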
Procedure: as §1, §2

[14] = test system: GS257NS; conditions: GS257NS (p16 + p17), labelled therapy combined with crystalline DBD polymorph;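 also: DBD at its own IC50 and half IC50 determined at Day 5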
Procedure: as §1, §2

[15] = test system: GS102periNS; conditions: GS102periNS (p20 + p21), labelled therapy combined with crystalline DBD polymorph
Procedure: as §1, §2

[16] = test system: GS104periNS; conditions: GS104periNS (p21 + p22), labelled therapy combined with crystalline DBD polymorph
Procedure: as §1, §2

[17] = test system: GS279coreNS; conditions: Day 5; GS279coreNS (p12 + p13); labelled therapy combined with crystalline DBD polymorph
Procedure: as §1, §2

[18] = test system: GS304NS; conditions: GS304NS (p16), labelled therapy combined with crystalline DBD polymorph
Procedure: as §1, §2

[19] = test system: GS365NS; conditions: GS365NS (p17 + p16), labelled therapy combined with crystalline DBD polymorph
Procedure: as §1, §2

[20] = test system: GS203NS; conditions: Day 8; GS203NS (P19 + p18); labelled therapy combined with crystalline DBD polymorph
Procedure: as §1, §2

Cc1[nH]c2ccccc2c1CCNCc1ccc(/C=C/C(=O)NO)cc1 [Panobinostat]
enhancement factor (viability % of most effective monotherapy divided by viability % of combination) ([1]; Day 5): 2.557 | enhancement factor (viability % of most effective monotherapy divided by viability % of combination) ([1]; Day 8): 5.363 | enhancement factor (viability % of most effective monotherapy divided by viability % of combination) ([2]; Day 5): 1.074 | enhancement factor (viability % of most effective monotherapy divided by viability % of combination) ([2]; Day 8): 0.944 | enhancement factor (viability % of most effective monotherapy divided by viability % of combination) ([3]; Day 5): 2.105 | enhancement factor (viability % of most effective monotherapy divided by viability % of combination) ([3]; Day 8): 8.116 | enhancement factor (viability % of most effective monotherapy divided by viability % of combination) ([4]; Day 5): 1.392 | enhancement factor (viability % of most effective monotherapy divided by viability % of combination) ([4]; Day 8): 2.253 | enhancement factor (viability % of most effective monotherapy divided by viability % of combination) ([5]; Day 5): 1.712 | enhancement factor (viability % of most effective monotherapy divided by viability % of combination) ([5]; Day 8): 2.357 | enhancement factor (viability % of most effective monotherapy divided by viability % of combination) ([6]; Day 5): 1.129 | enhancement factor (viability % of most effective monotherapy divided by viability % of combination) ([6]; Day 8): 1.202 | enhancement factor (viability % of most effective monotherapy divided by viability % of combination) ([7]; Day 5): 1.480 | enhancement factor (viability % of most effective monotherapy divided by viability % of combination) ([7]; Day 8): 4.353 | enhancement factor (viability % of most effective monotherapy divided by viability % of combination) ([8]; Day 5): 3.192 | enhancement factor (viability % of most effective monotherapy divided by viability % of combination) ([8]; Day 8): 9.253 | enhancement factor (viability % of most effective monotherapy divided by viability % of combination) ([9]; Day 5): 4.343 | enhancement factor (viability % of most effective monotherapy divided by viability % of combination) ([9]; Day 8): 5.512 | enhancement factor (viability % of most effective monotherapy divided by viability % of combination) [10]: 1.656 | enhancement factor (viability % of most effective monotherapy divided by viability % of combination) ([11]; Day 5): 4.399 | enhancement factor (viability % of most effective monotherapy divided by viability % of combination) ([11]; Day 8): 7.387 | enhancement factor (viability % of most effective monotherapy divided by viability % of combination) ([12]; Day 5): 1.943 | enhancement factor (viability % of most effective monotherapy divided by viability % of combination) ([12]; Day 8): 5.488 | enhancement factor (viability % of most effective monotherapy divided by viability % of combination) ([13]; Day 5): 2.519 | enhancement factor (viability % of most effective monotherapy divided by viability % of combination) ([13]; Day 8): 3.535 | enhancement factor (viability % of most effective monotherapy divided by viability % of combination) ([14]; Day 5): 1.643 | enhancement factor (viability % of most effective monotherapy divided by viability % of combination) ([14]; Day 8): 1.590 | enhancement factor (viability % of most effective monotherapy divided by viability % of combination) ([15]; Day 5): 1.591 | enhancement factor (viability % of most effective monotherapy divided by viability % of combination) ([15]; Day 8): 3.863 | enhancement factor (viability % of most effective monotherapy divided by viability % of combination) ([16]; Day 5): 1.339 | enhancement factor (viability % of most effective monotherapy divided by viability % of combination) ([16]; Day 8): 1.796 | enhancement factor (viability % of most effective monotherapy divided by viability % of combination) [17]: 5.962 | enhancement factor (viability % of most effective monotherapy divided by viability % of combination) ([18]; Day 5): 4.406 | enhancement factor (viability % of most effective monotherapy divided by viability % of combination) ([18]; Day 8): 5.405 | enhancement factor (viability % of most effective monotherapy divided by viability % of combination) ([19]; Day 5): 2.914 | enhancement factor (viability % of most effective monotherapy divided by viability % of combination) ([19]; Day 8): 3.253 | enhancement factor (viability % of most effective monotherapy divided by viability % of combination) [20]: 1.651
